Reference: patent US9714941B2, “Bio-sensing nanodevice” (Massachusetts Institute of Technology, priority 2007, dated 2017)

Legend:
[1] = Odorant solubility in SPR running buffer, inferred from the binding response; assay type: physicochemical
Method: Fresh odorant lilial solutions were made as follows. Pure odorant was diluted in ethanol to 0.5 M. This solution was diluted 67 times in PBS, 0.1% CHAPS, 0.02% CHS, 0.1% DDM to obtain a 7.5 mM odorant solution in running buffer with 1% (v/v) ethanol. Further dilutions were made in running buffer containing 1% (v/v) ethanol to obtain a concentration series of 5 μM, 10 μM, 20 μM and 40 μM of odorant lilial.
For the actual binding measurements, the odorant concentration series were injected from low to high concentration over control and derivatized surfaces for 30 seconds with a flow rate of 60 μl/min. Zero concentration blank buffer cycles were included as negative control samples. Solvent correction procedures were included to compensate for any DMSO related bulk refractive index variations and performed as described previously^(34). Non-specific binding effects to sensor surface CM4 were absent for all analyses reported.

[2] = molecular target: T1, hOR17-4 (Homo sapiens, UniProt P34982); details: cited from earlier work
T1 sequence (P34982 1-312): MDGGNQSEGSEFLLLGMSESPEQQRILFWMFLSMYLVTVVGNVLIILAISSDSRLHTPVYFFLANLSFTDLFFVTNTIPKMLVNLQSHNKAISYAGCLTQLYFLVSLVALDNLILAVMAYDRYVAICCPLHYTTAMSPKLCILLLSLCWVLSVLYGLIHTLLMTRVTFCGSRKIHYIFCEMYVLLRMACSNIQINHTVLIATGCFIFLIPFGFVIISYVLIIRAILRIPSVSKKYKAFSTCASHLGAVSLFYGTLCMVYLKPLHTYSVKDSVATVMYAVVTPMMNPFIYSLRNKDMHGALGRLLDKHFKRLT

[3] = molecular target: T1, hOR17-4; experiment: Surface plasmon resonance (Biacore A100) odorant binding assay; set-up: made in house; host or cells: cell-free expression, wheat germ extract (Roche RTS); uncleaned lysate supernatant captured on the chip; details: SPR
Method: All odorant binding experiments were performed on a Biacore™ A100 (GE Healthcare, Uppsala, Sweden) at 25° C. A Biacore™ A100 was used in the present studies since it has a parallel flow configuration thus allowing assay development e.g. solubilization conditions to be tested and optimized in parallel in a multiplexed format. The sensor chip CM4, amine coupling kit, HBS (10 mM Hepes, 0.15 M NaCl, pH 7.4) and PBS were from (GE Healthcare, Uppsala, Sweden).
The anti Rho-tag antibody 1D4 at 40 μg/ml in 10 mM sodium acetate pH 5.5 was immobilized onto a series S sensor chip using standard amine-coupling chemistry in HBS running buffer at 10 μl/min (33). The amount of coupled 1D4 was about 5500 RU. Control surfaces were prepared similarly without protein derivatization and utilized as a reference surfaces for compound binding experiments.
Cell-free lysate containing the expressed olfactory receptor was centrifuged for […] at 14000×g at 4° C., to remove larger particles. The supernatant, containing about 0.6 mg/ml olfactory receptor, was immediately captured on the surface plasmon resonance (SPR) chip using PBS, 0.1% CHAPS, 0.02% CHS, 0.1% DDM and 1% (v/v) ethanol as running buffer at 10 μl/min.
Fresh odorant lilial solutions were made as follows. […]

solubility at high concentrations ([1]; SPR running buffer): very low | concentration above which the response does not reach equilibrium (odorant starts to fall out of solution) ([1]; running buffer PBS, 0.1% CHAPS, 0.02% CHS, 0.1% DDM, 1% (v/v) ethanol): above 10 μM | binding constant (approximately estimated) ([3]; exact value could not be determined because of low solubility): within micromolar range
Compound: CC(C=O)Cc1ccc(C(C)(C)C)cc1 (stereo not drawn) [lilial]
agonist activity at hOR17-4 ([2]; in vivo studies): known agonist | affinity constant reported in vivo ([2]; in vivo): micromolar range | dose response binding (RU) ([3]; lilial 5-40 μM, 25° C., receptor from cell-free production captured via 1D4 antibody): binding response increases by increasing odorant concentration
